The results in this text go back to patent US20200060276A1, “THIAZOLE COMPOUND AND HERBICIDE” (OAT Agrio Co., Ltd., priority 2017, published 2020).

What all share (type): in vivo
In assay [1] the test system is Echinochloa crus-galli (L.) P. Beauv. var. formosensis Ohwi. Nature of the assay: Test for Herbicidal Effect in Flooding Treatment (#1), ECHDG. The note with it: for ECHDG #1 herbicidal effect (growth inhibition grade): flooding treatment at seeding, dose 2 kg/ha, visual observation on day 21. As to the method: (§1) (#1) Test for Herbicidal Effect in Flooding Treatment: Styrol cups each having an opening diameter of 8 cm (about 52 cm^2) were respectively filled with soil (45 ml) which had been passed through a sieve (2 mm). Water (about 115 ml) was mixed with the soil such that the soil was flooded. After the soil stood still for 24 hours, Monochoria vaginalis, Echinochloa crus-galli (L.) P. Beauv. var. formosensis Ohwi, Cyperus difformis (umbrella sedge), and Scirpus juncoides were seeded. Each of the compounds of the present invention was dissolved in acetone, and the obtained product was then diluted with water containing Tween 80®. Each of the resultant chemical solutions was dropped on the entire surface of an associated one of treatment sections, so that each section was treated with 1 ml of the respective chemical solution (a dose of 2 kg/ha). After the treatment, the plants were grown in a glasshouse. On day 21, a survey was conducted on the herbicidal activity by visual observation, and evaluation was made according to the following criteria. 0: Growth inhibition effect is less than 10%. 1: Growth inhibition effect is equal to or greater than 10%, and less than 30%. 2; Growth inhibition effect is equal to or greater than 30%, and less than 50%. 3: Growth inhibition effect equal to or greater than 50%, and less than 70%. 4: Growth inhibition effect is equal to or greater than 70%, and less than 90%. 5: Growth inhibition effect is equal to or greater than 90%, or complete withering is achieved. ECHDG=Echinochloa crus-galli (L.) P. Beauv. var. formosensis Ohwi, MONVA=Monochoria vaginalis, SCIJU=Scirpus juncoides, CYMIC=Cyperus microiria.

The subject of assay [2] is Scirpus juncoides. Nature of the assay: Test for Herbicidal Effect in Flooding Treatment (#1), SCIJU. The note with it: for SCIJU #1 herbicidal effect (growth inhibition grade): flooding treatment at seeding, dose 2 kg/ha, visual observation on day 21. On the procedure:
as §1

Assay [3] deals with Echinochloa crus-galli (L.) P. Beauv. var. formosensis Ohwi. Put plainly: Test for Herbicidal Effect in Flooding Treatment (#2), ECHDG at 2-2.5 leaf stage. The note with it: for ECHDG (2-2.5L) #2 herbicidal effect (growth inhibition grade): flooding treatment at 2-2.5 leaf stage, dose 0.2 kg/ha, visual observation on day 21. On the procedure:
(#2) Test for Herbicidal Effect in Flooding Treatment: Styrol cups each having an opening diameter of 13 cm (about 130 cm^2) were respectively filled with muddy soil (500 ml). Water (about 300 ml) was mixed with the soil such that the soil was flooded. After the soil stood still for 24 hours, Echinochloa crus-galli (L.) P. Beauv. var. formosensis Ohwi was seeded. When the Echinochloa crus-galli (L.) P. Beauv. var. formosensis Ohwi grew to reach 2-2.5 leaf stage, chemical solutions were dropped on the entire surface of treatment sections, so that each section is treated with 1 ml of the respective chemical solution (a dose of 0.2 kg/ha). Each of the chemical solutions was prepared by dissolving associated one of the compounds of the present invention in acetone, followed by dilution with water containing Tween 80 g. After the treatment, the plants were grown in a glasshouse. On day 21, a survey was conducted on the herbicidal activity by visual observation, and evaluation was made according to the following criteria. 0: Growth inhibition effect is less than 10%. 1: Growth inhibition effect is equal to or greater than 10%, and less than 30%. 2; Growth inhibition effect is equal to or greater than 30%, and less than 50%. 3: Growth inhibition effect equal to or greater than 50%, and less than 70%. 4: Growth inhibition effect is equal to or greater than 70%, and less than 90%. 5: Growth inhibition effect is equal to or greater than 90%, or complete withering is achieved. ECHDG=Echinochloa crus-galli (L.) P. Beauv. var. formosensis Ohwi, MONVA=Monochoria vaginalis, SCIJU=Scirpus juncoides, CYMIC=Cyperus microiria. The herbicidal activity of the following comparative compounds A and B (the compounds disclosed Japanese Unexamined Patent Publication No. 2003-096059) were evaluated in a manner pursuant to Test Example 1. (#2).

Consider `O=S(=O)(Oc1cccc(F)c1C[S+]([O-])c1ncc(Cl)s1)C(F)(F)F` (stereo not drawn) [Compound 1B-29], for which, in assay [1] (flooding treatment #1), the “ECHDG #1 herbicidal effect (growth inhibition rating 0-5)” value is on record as 5 (Growth inhibition effect is equal to or greater than 90%, or complete withering is achieved). Besides, the “SCIJU #1 herbicidal effect (growth inhibition rating 0-5)” value in assay [2] (flooding treatment #1) is 5 (Growth inhibition effect is equal to or greater than 90%, or complete withering is achieved). In addition, in assay [3] (flooding treatment #2, 2-2.5 leaf stage), the “ECHDG (2-2.5L) #2 herbicidal effect (growth inhibition rating 0-5)” value is 5 (Growth inhibition effect is equal to or greater than 90%, or complete withering is achieved).

As to `COCOc1cccc(F)c1CS(=O)(=O)c1ncc(Cl)s1` [Compound 1C-37], the “ECHDG #1 herbicidal effect (growth inhibition grade)” value in assay [1] was 5 (Growth inhibition effect is equal to or greater than 90%, or complete withering is achieved). The “SCIJU #1 herbicidal effect (growth inhibition grade)” value in assay [2] is given as 5 (Growth inhibition effect is equal to or greater than 90%, or complete withering is achieved). Besides, the “ECHDG (2-2.5L) #2 herbicidal effect (growth inhibition grade)” value in assay [3] is given as 5 (Growth inhibition effect is equal to or greater than 90%, or complete withering is achieved).

Regarding `O=S(=O)(Cc1c(F)cccc1OC(F)(F)F)c1ncc(Cl)s1` [Compound 1C-48], in assay [1], the “ECHDG #1 herbicidal effect (growth inhibition grade)” value is 5 (Growth inhibition effect is equal to or greater than 90%, or complete withering is achieved). Moreover, the “SCIJU #1 herbicidal effect (growth inhibition grade)” value in assay [2] is 5 (Growth inhibition effect is equal to or greater than 90%, or complete withering is achieved). Besides, the “ECHDG (2-2.5L) #2 herbicidal effect (growth inhibition grade)” value in assay [3] is given as 5 (Growth inhibition effect is equal to or greater than 90%, or complete withering is achieved).

Take `O=S(=O)(Cc1c(OCC(F)(F)F)cccc1C(F)(F)F)c1ncc(Cl)s1` [Compound 1C-56]: the “ECHDG #1 herbicidal effect (growth inhibition grade)” value in assay [1] is listed as 5 (Growth inhibition effect is equal to or greater than 90%, or complete withering is achieved). Moreover, the “SCIJU #1 herbicidal effect (growth inhibition grade)” value in assay [2] is reported as 5 (Growth inhibition effect is equal to or greater than 90%, or complete withering is achieved). For the same compound, the “ECHDG (2-2.5L) #2 herbicidal effect (growth inhibition grade)” value in assay [3] is 5 (Growth inhibition effect is equal to or greater than 90%, or complete withering is achieved).

Regarding `O=S(=O)(Cc1ccccc1OC(F)(F)C(F)F)c1ncc(Cl)s1` [Compound 1C-57], the “ECHDG #1 herbicidal effect (growth inhibition grade)” value in assay [1] is on record as 5 (Growth inhibition effect is equal to or greater than 90%, or complete withering is achieved). Also, the “SCIJU #1 herbicidal effect (growth inhibition grade)” value in assay [2] is 5 (Growth inhibition effect is equal to or greater than 90%, or complete withering is achieved). For the same compound, the “ECHDG (2-2.5L) #2 herbicidal effect (growth inhibition grade)” value in assay [3] was 5 (Growth inhibition effect is equal to or greater than 90%, or complete withering is achieved).

Consider `O=S(=O)(Cc1ccc(OCc2ccccc2)cc1)c1ncc(Cl)s1` [Compound 1C-120], for which the “ECHDG #1 herbicidal effect (growth inhibition grade)” value in assay [1] is reported as 5 (Growth inhibition effect is equal to or greater than 90%, or complete withering is achieved). Moreover, the “SCIJU #1 herbicidal effect (growth inhibition grade)” value in assay [2] was 4 (Growth inhibition effect is equal to or greater than 70%, and less than 90%). For the same compound, the “ECHDG (2-2.5L) #2 herbicidal effect (growth inhibition grade)” value in assay [3] is 2 (Growth inhibition effect is equal to or greater than 30%, and less than 50%).

`CC(C)(c1c(F)cccc1OC(F)F)S(=O)(=O)c1ncc(Cl)s1` [Compound 1C-141]: the “ECHDG #1 herbicidal effect (growth inhibition grade)” value in assay [1] is 5 (Growth inhibition effect is equal to or greater than 90%, or complete withering is achieved). In assay [2], the “SCIJU #1 herbicidal effect (growth inhibition grade)” value is reported as 5 (Growth inhibition effect is equal to or greater than 90%, or complete withering is achieved). The “ECHDG (2-2.5L) #2 herbicidal effect (growth inhibition grade)” value in assay [3] was 4 (Growth inhibition effect is equal to or greater than 70%, and less than 90%).

Consider `COc1cccc(Cl)c1CS(=O)(=O)c1ncc(Br)s1` [Compound 1C-151], for which the “ECHDG #1 herbicidal effect (growth inhibition grade)” value in assay [1] is recorded as 5 (Growth inhibition effect is equal to or greater than 90%, or complete withering is achieved). The “SCIJU #1 herbicidal effect (growth inhibition grade)” value in assay [2] is recorded as 5 (Growth inhibition effect is equal to or greater than 90%, or complete withering is achieved). The “ECHDG (2-2.5L) #2 herbicidal effect (growth inhibition grade)” value in assay [3] is 5 (Growth inhibition effect is equal to or greater than 90%, or complete withering is achieved).

For the compound `O=S(=O)(Cc1ccccc1OC(F)F)c1ncc(Br)s1` [Compound 1C-152], the “ECHDG #1 herbicidal effect (growth inhibition grade)” value in assay [1] is 5 (Growth inhibition effect is equal to or greater than 90%, or complete withering is achieved). Also, the “SCIJU #1 herbicidal effect (growth inhibition grade)” value in assay [2] was 5 (Growth inhibition effect is equal to or greater than 90%, or complete withering is achieved). Further, the “ECHDG (2-2.5L) #2 herbicidal effect (growth inhibition grade)” value in assay [3] is listed as 5 (Growth inhibition effect is equal to or greater than 90%, or complete withering is achieved).

Turning to `O=S(=O)(Cc1c(F)cccc1OC(F)(F)F)c1ncc(Br)s1` [Compound 1C-158], the “ECHDG #1 herbicidal effect (growth inhibition grade)” value in assay [1] is 5 (Growth inhibition effect is equal to or greater than 90%, or complete withering is achieved). Besides, in assay [2], the “SCIJU #1 herbicidal effect (growth inhibition grade)” value is 5 (Growth inhibition effect is equal to or greater than 90%, or complete withering is achieved). Besides, the “ECHDG (2-2.5L) #2 herbicidal effect (growth inhibition grade)” value in assay [3] is listed as 5 (Growth inhibition effect is equal to or greater than 90%, or complete withering is achieved).

Take `O=S(=O)(Cc1c(Cl)cccc1OC(F)(F)F)c1ncc(Br)s1` [Compound 1C-159]: in assay [1], the “ECHDG #1 herbicidal effect (growth inhibition grade)” value was 5 (Growth inhibition effect is equal to or greater than 90%, or complete withering is achieved). Besides, in assay [2], the “SCIJU #1 herbicidal effect (growth inhibition grade)” value is on record as 5 (Growth inhibition effect is equal to or greater than 90%, or complete withering is achieved). Moreover, the “ECHDG (2-2.5L) #2 herbicidal effect (growth inhibition grade)” value in assay [3] is recorded as 5 (Growth inhibition effect is equal to or greater than 90%, or complete withering is achieved).

As to `CCS(=O)(=O)c1cccc(F)c1CS(=O)(=O)c1ncc(Cl)s1` [Compound 1C-174], the “ECHDG #1 herbicidal effect (growth inhibition grade)” value in assay [1] was 5 (Growth inhibition effect is equal to or greater than 90%, or complete withering is achieved). Also, the “SCIJU #1 herbicidal effect (growth inhibition grade)” value in assay [2] is 5 (Growth inhibition effect is equal to or greater than 90%, or complete withering is achieved). In addition, in assay [3], the “ECHDG (2-2.5L) #2 herbicidal effect (growth inhibition grade)” value was 4 (Growth inhibition effect is equal to or greater than 70%, and less than 90%).

For the compound `O=S(=O)(Cc1c(Cl)cc(OC(F)F)cc1Cl)c1ncc(Cl)s1` [Compound 1C-175], the “ECHDG #1 herbicidal effect (growth inhibition grade)” value in assay [1] is recorded as 5 (Growth inhibition effect is equal to or greater than 90%, or complete withering is achieved). The “SCIJU #1 herbicidal effect (growth inhibition grade)” value in assay [2] was 5 (Growth inhibition effect is equal to or greater than 90%, or complete withering is achieved). In assay [3], the “ECHDG (2-2.5L) #2 herbicidal effect (growth inhibition grade)” value is on record as 5 (Growth inhibition effect is equal to or greater than 90%, or complete withering is achieved).

For the compound `O=S(=O)(Cc1c(F)cc(OC(F)F)cc1F)c1ncc(Cl)s1` [Compound 1C-176], the “ECHDG #1 herbicidal effect (growth inhibition grade)” value in assay [1] is given as 5 (Growth inhibition effect is equal to or greater than 90%, or complete withering is achieved). Also, in assay [2], the “SCIJU #1 herbicidal effect (growth inhibition grade)” value is listed as 5 (Growth inhibition effect is equal to or greater than 90%, or complete withering is achieved). For the same compound, the “ECHDG (2-2.5L) #2 herbicidal effect (growth inhibition grade)” value in assay [3] is on record as 5 (Growth inhibition effect is equal to or greater than 90%, or complete withering is achieved).

In the case of `O=S(=O)(Cc1c(F)cccc1OCF)c1ncc(Cl)s1` [Compound 1C-179], the “ECHDG #1 herbicidal effect (growth inhibition grade)” value in assay [1] is given as 5 (Growth inhibition effect is equal to or greater than 90%, or complete withering is achieved). Moreover, the “SCIJU #1 herbicidal effect (growth inhibition grade)” value in assay [2] was 5 (Growth inhibition effect is equal to or greater than 90%, or complete withering is achieved). Also, in assay [3], the “ECHDG (2-2.5L) #2 herbicidal effect (growth inhibition grade)” value is 5 (Growth inhibition effect is equal to or greater than 90%, or complete withering is achieved).
